Here are results for six compounds from US20240277730A1, “SUPPRESSION OF COVID-19 REPLICATION BY COVID-19 ENTRY INHIBITORS” (Board of Regents of the University of Nebraska, priority 2021, published 2024).

Data set [1] can be described thus: MTT cell viability assay, HEK293T-hACE2. Type of data set: cell-based. The note with it: human, HEK293T-hACE2 cells. Here is the method: (§1) The MTT cell viability assay of the preferred embodiment utilized HEK-293T-hACE2. UNCN1T. Vero-STAT1 knockout, and Calu-3 cells seeded at the density of 20,000 cells/well in a 96-well plate containing 100 μl complete media specific for each cell type. Cells were incubated for 12 h at 37° C., in a humidified 5% CO2 incubator for adherence. After 12-h incubation, the media was replaced with fresh media, and HEK-293T-hACE2 cells were treated with the five compounds at concentrations ranging between 0.001 to 100 μM. The Calu-3. […] Untreated cells were considered a negative control, and DMSO treated cells were considered vehicle controls. After the treatment, cells were incubated at 37° C., in humidified 5% CO2 incubator. Seventy-two hour posttreatment. 20 μl of MTT substrate (5 mg/ml) was added to each well and incubated for 4 additional hours at 37° C., in the dark. Then the culture media was carefully removed, and blue formazan crystals were dissolved in 200 μl of DMSO, and the purple color was read at 595 nm with a reference filter of 620 nm.

Data set [2] concerns the target ACE2: SARS-COV-2 Spike RBD (Homo sapiens, UniProt Q9BYF1). Description: ACE2: SARS-COV-2 Spike RBD inhibitor screening assay (ELISA kit). On the set-up: species or system SARS-COV-2 / human. The note with it: tested 0.25 to 5 μM in triplicate; read-out: IC50, inhibition of binding of SARS-COV-2 Spike RBD to ACE2.
Data set [3] can be described thus: MTT cell viability assay, UNCN1T. Type of data set: cell-based. The note with it: human, UNCN1T cells. Here is the method:
as §1
In general terms: Formazan colour is commonly taken as a measure of viable cells.

In data set [4] the test system is SARS-COV-2. Type of data set: cell-based.
A further data set addresses Hu-1 S-RBD (Severe acute respiratory syndrome coronavirus 2, UniProt P0DTC2). Put plainly: microscale thermophoresis (MST), S-RBD alone. Type of data set: binding, SARS-COV-2. For orientation: MST reads how a fluorescent partner responds to local heating, with and without ligand.
A short description of a further data set: in vitro. The format is cell-based. The note with it: African green monkey, Vero-STAT1 knockout cells, MTT. Here is the method:
as §1

Data set [5] is described as follows: MTT cell viability assay, Calu-3. Type of data set: cell-based. The note with it: human, Calu-3 cells. Here is the method:
as §1

Data set [6] has as its system pseudotyped lentiviral particles expressing Spike glycoprotein of SARS-COV-2. Description: microbe, parasite or virus in culture. Type of data set: cell-based.
For data set [7], the system named is SARS-COV-2. Put plainly: antiviral activity against live SARS-COV-2 in UNCN1T cells (RT-qPCR). Type of data set: cell-based. The note with it: read-out: IC50, inhibition of SARS-COV-2 replication.
For data set [8], the system named is SARS-COV-2. Description: microbe, parasite or virus in culture. Type of data set: cell-based. The note with it: read-out: IC50, inhibition of SARS-COV-2 replication.
The subject of data set [9] is SARS-COV-2. Type of data set: cell-based. This is another data set of the same source.
Setting [10] is: Severe acute respiratory syndrome coronavirus 2.

Where “and” joins values, the source holds several entries; their conditions need not be identical. Equal entries are not always repeated. Entries after “also recorded” stand apart in the source; their conditions may differ.

Chain of ACE2: SARS-COV-2 Spike RBD (Q9BYF1 18-740): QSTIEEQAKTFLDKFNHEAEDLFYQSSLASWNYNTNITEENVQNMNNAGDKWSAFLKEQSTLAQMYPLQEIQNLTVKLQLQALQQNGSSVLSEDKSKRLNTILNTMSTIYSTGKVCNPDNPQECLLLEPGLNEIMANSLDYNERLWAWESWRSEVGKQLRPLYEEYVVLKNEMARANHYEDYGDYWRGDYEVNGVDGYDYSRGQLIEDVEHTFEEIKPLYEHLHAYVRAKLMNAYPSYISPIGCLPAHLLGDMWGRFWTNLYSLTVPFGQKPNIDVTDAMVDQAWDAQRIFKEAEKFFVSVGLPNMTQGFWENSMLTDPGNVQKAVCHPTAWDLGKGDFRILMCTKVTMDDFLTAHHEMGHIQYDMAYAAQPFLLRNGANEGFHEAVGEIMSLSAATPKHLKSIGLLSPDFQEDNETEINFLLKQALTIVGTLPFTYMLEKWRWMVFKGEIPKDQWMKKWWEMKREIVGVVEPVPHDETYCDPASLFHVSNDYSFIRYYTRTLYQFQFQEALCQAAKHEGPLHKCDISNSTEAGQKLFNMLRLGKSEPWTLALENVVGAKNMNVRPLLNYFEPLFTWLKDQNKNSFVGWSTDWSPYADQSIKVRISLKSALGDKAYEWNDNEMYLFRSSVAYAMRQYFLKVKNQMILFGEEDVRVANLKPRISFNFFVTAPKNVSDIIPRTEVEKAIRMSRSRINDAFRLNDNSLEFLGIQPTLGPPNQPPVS

For orientation: CC50 means the concentration that lowers cell viability or growth by half. A low value points to harm at low concentration. Usually IC50 stands for the concentration at which inhibition is half-maximal. `CN(C)/C=C1\N=C(c2cccnc2Oc2ccc(Cl)cc2)OC1=O` [formula (VII), (Z)-2-(2-(4-chlorophenoxy)-pyridin-3-yl)-4-((dimethyl-amino)methylene)oxazol-5(4H)-one] gave a CC50 at 72 h in data set [1] of more than 100 µM. In addition, the IC50 in data set [2] is more than 5 µM.
Regarding `O=C1Nc2cc(C(F)(F)F)ccc2Oc2ccsc21` [formula (IIa), 7-(trifluoromethyl)benzo[b]-thieno[2,3-f][1,4]oxazepin-10(9H)-one], the CC50 at 72 h is more than 100 µM in data set [3], more than 100 µM in [1], 7.13 µM in the data set “in vitro” and more than 100 µM in [5]. The “SARS-COV-2 infection compared with vehicle controls” value with SARS-COV-2 [4] is recorded as “no significant difference”. For the same compound, the “reduction in SARS-COV-2 infectivity” value in the data set with SARS-COV-2 [4] is reported as approximately 40%. The “binding to S-RBD alone” value on Hu-1 S-RBD is “does not binding; also recorded: does not bind”. The “pseudotype viral entry inhibition” value in data set [6] was “significant and robust viral entry inhibition”. Moreover, the IC50 in data set [6] (Severe acute respiratory syndrome coronavirus 2, 48 h, read-out: IC50, inhibition of entry of pseudotyped lentiviral particles) came to 0.84 µM.
Turning to `CN1C(=O)c2ccccc2[S+]([O-])c2cc([N+](=O)[O-])ccc2S1(=O)=O` (stereo not shown) [formula (Ia), 6-methyl-2-nitrodibenzo[d,g]-[1,6,2]dithiazocin-7(6H)-one 5,5, 12-trioxide], the CC50 at 72 h was more than 100 µM in data set [3], more than 100 µM in data set [1], 6.21 µM in “in vitro” and more than 100 µM in [5]. For the same compound, the IC50 was 0.67 µM in the data set with SARS-COV-2 [7] (setting [10]); 1.16 µM with SARS-COV-2 [7]; 5.35 µM in the data set on SARS-COV-2 [8] (setting [10]); 2.94 µM with SARS-COV-2 [8]; < 0.25 µM and ≥ 0.25 µM in [2]. Besides, the “SARS-COV-2 infection compared with vehicle controls” value in the data set on SARS-COV-2 [4] is reported as “no significant difference”. Moreover, in the data set on SARS-COV-2 [4], the “reduction in SARS-COV-2 infectivity” value was approximately 40%. Moreover, the “pseudotype viral entry inhibition” value in [6] was “low level of viral entry inhibition”.
The compound `OC(CNCCNc1ncccc1C(F)(F)F)Cn1ccc2ccccc21` (stereo not shown) [formula (VI), 1-(1H-indol-1-yl)-3-((2-((3-(trifluoromethyl)pyridin-2-yl)amino)ethyl)amino)-propan-2-ol] registered a CC50 at 72 h in [1] of more than 100 µM. In data set [2], the IC50 is more than 5 µM.
As to `CCC(CC)COC(=O)[C@H](C)N[P@](=O)(OC[C@H]1O[C@@](C#N)(c2ccc3c(N)ncnn23)[C@H](O)[C@@H]1O)Oc1ccccc1` [RDV, remdesivir], the “reduction in dosages in RDV/formula (IIa) combination” value in the data set on SARS-COV-2 [9] is listed as not below 2.3 fold.
For `CCn1c(SCC(=O)N2CCCc3ccccc32)nnc1-c1cccs1` [formula (V), 1-(3,4-dihydroquinolin-1(2H)-yl)-2-((4-ethyl-5-(thiophen-2-yl)-4H-1,2,4-triazol-3-yl)lhio)elhanone], in data set [1], the CC50 at 72 h is more than 100 µM. In addition, in data set [2], the IC50 came out at 1.91 µM.
